Some test systems named below: A498 renal; COLO 205 colon; EKVX NSCLC; HT29 colon; NCI-H522 lung; NCI/ADR-RES ovarian; PC-3 prostate; SF-539 CNS; SN12C renal; TK-10 renal.
What all share (experiment): NCI-60 cell line screen, 48 h

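Growth conditions: 96-well plates. Treatment: test compound, 48 hours, 5 concentrations. Analysis: linear interpolation between bracketing concentrations; unreached endpoints set to highest concentration. Definition used: TGI = concentration required for complete inhibition of growth.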 Where a SMILES comes first, the peptide text is derived from it. The star is where a group is joined. Bn = c1ccc(C*)cc1

With `O=C1c2cccc(NCCNCCO)c2C(=O)c2cccc(NCCNCCO)c21`, the TGI in the experiment with A498 renal came to 7.44 µM; with COLO 205 colon it was 2.09 µM; in the experiment with EKVX NSCLC, 4.84 µM; with HT29 colon, 3.54 µM; with NCI-H522 lung, 1.66 µM; in the experiment with NCI/ADR-RES ovarian, 30.9 µM. The TGI turned out to be 3.02 µM in the experiment on PC-3 prostate, 2.74 µM with SF-539 CNS, 5.82 µM in the experiment with SN12C renal and 23.2 µM in the experiment on TK-10 renal.
Take `COC(=O)C1(Cc2ccc3c(c2)CCC3)Cc2ccccc2C1=O` (stereo not given): the TGI is 57.9 µM in the experiment with A498 renal; 30.4 µM in the experiment with COLO 205 colon; 73.7 µM in the experiment with EKVX NSCLC; 30.3 µM in the experiment with HT29 colon; 31.5 µM in the experiment on NCI-H522 lung; above 100 µM in the experiment on NCI/ADR-RES ovarian. Moreover, the TGI in the experiment on PC-3 prostate was above 100 µM; in the experiment with SF-539 CNS, 32.9 µM; in the experiment with SN12C renal, above 100 µM; in the experiment with TK-10 renal, 55.9 µM.
Consider `CC1=CC(=O)CC2(C)CCC(C(C)CC(=O)CC(C)C)CC12` (stereo not given), for which the TGI in the experiment on A498 renal was above 100 µM; in the experiment on COLO 205 colon, 31.8 µM; in the experiment on EKVX NSCLC, above 100 µM; with HT29 colon it was 76.8 µM; with NCI-H522 lung, 30.8 µM; in the experiment with NCI/ADR-RES ovarian, above 100 µM. For the same molecule, the TGI with PC-3 prostate is 40.7 µM; in the experiment with SF-539 CNS, 30 µM; in the experiment with SN12C renal, 32.6 µM; with TK-10 renal it was above 100 µM.
For `COc1c(O)c(O)cc2c1-c1ccc(OC)c(=O)cc1C(NC(C)=O)CC2` (stereo not given), the TGI with A498 renal was 89 µM; in the experiment with COLO 205 colon, 9.07 µM; in the experiment on EKVX NSCLC, 98.2 µM; in the experiment on HT29 colon it was 16 µM; with NCI-H522 lung, 3.5 µM; with NCI/ADR-RES ovarian, above 69.8 µM. The TGI is above 100 µM in the experiment on PC-3 prostate, 10.4 µM with SF-539 CNS, 42.5 µM in the experiment on SN12C renal and above 100 µM in the experiment with TK-10 renal.
As to `COc1ccc(N=Nc2c3c(c(O)c4ccccc24)CCC(C)(C)O3)cc1`, the TGI in the experiment on A498 renal is 32 µM; in the experiment with COLO 205 colon it was 72.8 µM; in the experiment on EKVX NSCLC, 54.1 µM; in the experiment on HT29 colon, 27.6 µM; with NCI-H522 lung it was 33.5 µM; with NCI/ADR-RES ovarian, above 100 µM. Also, the TGI in the experiment on PC-3 prostate was determined as 87 µM; in the experiment on SF-539 CNS, 62.3 µM; in the experiment with SN12C renal it was 38.7 µM; with TK-10 renal, 65.8 µM.
As for `CC12CC1C(c1cccc([N+](=O)[O-])c1)(c1cccc([N+](=O)[O-])c1)N=N2` (stereo not given), the TGI in the experiment on A498 renal was above 100 µM; in the experiment with COLO 205 colon, 41.5 µM; with EKVX NSCLC, above 100 µM; in the experiment with HT29 colon, above 100 µM; in the experiment with NCI-H522 lung it was 23.2 µM; in the experiment with NCI/ADR-RES ovarian, 59.3 µM. Further, the TGI is 88.8 µM with PC-3 prostate, 52.9 µM in the experiment on SF-539 CNS, 55 µM in the experiment on SN12C renal and above 100 µM in the experiment with TK-10 renal.
Regarding `Cn1ccnc1Sc1ccc(C=Nc2ccc3nc(SCC(=O)NC4CCCCC4)sc3c2)cc1[N+](=O)[O-]`, the TGI in the experiment on A498 renal is 48.2 µM; in the experiment on COLO 205 colon, above 100 µM; in the experiment on EKVX NSCLC it was above 100 µM; with HT29 colon, above 100 µM; in the experiment on NCI-H522 lung, above 100 µM; in the experiment with NCI/ADR-RES ovarian, above 100 µM. Further, the TGI in the experiment on PC-3 prostate was above 100 µM; in the experiment on SF-539 CNS, 22.3 µM; in the experiment with SN12C renal, above 100 µM; in the experiment with TK-10 renal, 32.2 µM.
Take `O=C(O)c1ccc2c(c1)CC1(C2)Cc2cc3c(cc2C1=O)CCC3` (stereo not given): the TGI in the experiment on A498 renal, in the experiment on COLO 205 colon, with EKVX NSCLC, with HT29 colon, in the experiment with NCI-H522 lung and with NCI/ADR-RES ovarian was above 100 µM each time. Further, the TGI in the experiment with PC-3 prostate, with SF-539 CNS, in the experiment on SN12C renal and in the experiment with TK-10 renal was above 100 µM each time.
Regarding `CC1=C[C@@H](C)C[C@]2(C)CC[C@H](O2)[C@]23CC[C@](C(=O)O)(C[C@H](O2)[C@@H]2O[C@@](C)(CC2=O)[C@@H](O)[C@H]2CC[C@@]4(CCC[C@@H](O4)[C@H](C)C(=O)O[C@H]4C[C@H]([C@]5(O)OCC[C@H](C)[C@@H]5O)O[C@H]4C=C1)O2)O3`, the TGI in the experiment with A498 renal, with COLO 205 colon, in the experiment on EKVX NSCLC, in the experiment with HT29 colon, with NCI-H522 lung and with NCI/ADR-RES ovarian was above 10 µM throughout. The TGI with PC-3 prostate, with SF-539 CNS, in the experiment with SN12C renal and in the experiment with TK-10 renal was above 10 µM each time.
For `Clc1ccc(Cl)c(SCCCN2CCNCC2)c1`, the TGI with A498 renal amounted to 28.2 µM; with COLO 205 colon, 38.4 µM; with EKVX NSCLC, 34.7 µM; in the experiment on HT29 colon, 37.7 µM; in the experiment on NCI-H522 lung it was 34 µM; in the experiment on NCI/ADR-RES ovarian it was 36.2 µM. The TGI stood at 29.7 µM in the experiment on PC-3 prostate, 51.4 µM with SF-539 CNS, 37.8 µM in the experiment with SN12C renal and 31.4 µM in the experiment with TK-10 renal.
On to `COC(=O)C(CC(C)C)NC(=O)C(N)Cc1ccc(OCc2ccccc2)cc1` (stereo not given) (H-Tyr(Bn)-Leu-OMe; configuration not given here), for which the TGI in the experiment with A498 renal, with COLO 205 colon, in the experiment with EKVX NSCLC, in the experiment on HT29 colon, in the experiment with NCI-H522 lung and in the experiment with NCI/ADR-RES ovarian was above 10 µM each time. Also, the TGI in the experiment with PC-3 prostate, with SF-539 CNS, with SN12C renal and with TK-10 renal was above 10 µM each time.
In the case of `O=C(O)CC(NC(=O)/C(=C/c1ccccc1O)NC(=O)c1ccccc1)C(=O)O` (stereo not given), the TGI with A498 renal, in the experiment on COLO 205 colon, in the experiment on EKVX NSCLC, in the experiment on HT29 colon, in the experiment with NCI-H522 lung and in the experiment with NCI/ADR-RES ovarian was above 100 µM throughout. The TGI in the experiment on PC-3 prostate, in the experiment on SF-539 CNS, with SN12C renal and with TK-10 renal was above 100 µM throughout.

These data come from PubChem BioAssay (NCI).
